From PMC8162438, “Cancer cell-selective modulation of mitochondrial respiration and metabolism by potent organogold(III) dithiocarbamates” (Chemical Science, 2020)
“Also recorded” adds a separate entry of the source.

Experiment: UV-vis stability in PBS, DMEM and RPMI-1640
Type: physicochemical
Details: 50 μM, DMEM, RPMI-1640, 37 °C, over 24 h
Source text: We next evaluated the stability of all ten complexes in three relevant biological media, namely, PBS (phosphate-buffered saline), DMEM (Dulbecco's modified eagle medium), and RPMI-1640 (Roswell Park Memorial Institute-1640). RPMI-1640 contain several biological nucleophiles such as amino acids and extracellular relevant levels of GSH, which are common sources of reductants. Development of new drug molecules require proper characterization of compound stability in solution. To evaluate their stability, the complexes were prepared as a stock solution in DMSO (5 mM) and diluted with PBS or DMEM at room temperature to a final concentration of 50 μM. […]
UV-vis Stability in DMEM, PBS and RPMI-1640 at 37 °C. All spectra were recorded on a Shimadzu UV-1280 model instrument. […] Time periods of t = 0 h (after preparation of sample), 1 h, 6 h, 12 h, and 24 h were recorded. […] The absorbance profile was scanned from 650 nm to 240 nm for each scan. For each complex, the data were normalized to the highest absorbance at t = 0 h and plotted in GraphPad Prism 6. […]
Reactivity with GSH (UV-vis Spectroscopy). […] All spectra were recorded on a Shimadzu UV-1280 model instrument.
A blank was prepared by mixing 50 µL of DMSO and 1.95 mL of PBS. Time intervals of 5 minutes and 12 h were recorded. […] For each reaction, the spectrum was normalized to the highest absorbance and plotted in GraphPad Prism 6. […]

SMILES	Stability in biological media (UV-vis absorbance)
C[N+](C)=C1[S][Au-2]2([S]1)[c]1ccccc1C(=O)c1cccc[n+]12.F[P-](F)(F)(F)(F)F (centres unmarked) [1a]	no significant decrease in absorbance
C[N+](C)=C1[S][Au-2]2([S]1)[c]1ccccc1Cc1cccc[n+]12.F[P-](F)(F)(F)(F)F (centres unmarked) [2a]	higher stability in PBS, and DMEM; also recorded: no significant decrease in absorbance
